According to US8263664B2, “pH-sensitive polymeric micelles for drug delivery” (priority 2002, dated 2012):

Assays:
MCF-7/DOX^R cells = assay: MTT cytotoxicity against DOX-resistant MCF-7/DOX^R cells; details: 48 hrs incubation, pH 8.0-6.8
Protocol: DOX-resistant MCF-7 cells (MCF-7/DOX^R) were selected from MCF-7 cells (Korean Cell Line Bank (KCLB)) that were stepwise exposed at 0.001-10 mg/mL of free DOX. Here, cells were maintained in RPMI-1640 (Gibco, Uxbridge, UK) medium with 2 mM L-glutamine, 5% penicillin-streptomycin, and 10% fetal bovine serum in a humidified incubator 37° C. and 5% CO2 atmosphere.
For the cytotoxicity test of free DOX or drug-loaded polymeric micelles against sensitive MCF-7 or MCF-7/DOX^R cells, cells (5×10^4 cells/mL) growing as a monolayer, were seeded at 96-well dish in 200 mL of RPMI 1640 medium before 24 hrs. Free DOX or DOX loaded micelles in RPMI 1640 medium with pH 7.4 or 6.8 were prepared immediately before use as described above, added to medium-removed 96-well dish with different DOX concentration, and incubated for 48 hrs. Chemosensitivity was assessed using the tetrazolium salt MTT (Sigma Chemical Co.). Then, 100 mL of PBS pH 7.4 containing 20 mL of MTT (500 mg/L) solution was added to each well. The plates were incubated for an additional 4 hrs, and then 100 mL of DMSO was added to each well. The absorbance of each well was read on a microplate reader using a test wavelength of 570 nm and a reference wavelength 630 nm.

A2780/DOX^R tumor = tested on: A2780/DOX^R tumor; set-up: species or system nude mice; details: mouse, in vivo, iv
Protocol: To directly explore the extent of drug extravasation from the blood vessels and accumulation of DOX in the tumor, the time-dependent fluorescence intensity of DOX in the tumor sight was measured using a non-invasive skin fold window chamber model, which allows real-time measurements. To investigate the in situ delivery of polymeric micelles to solid tumors, a non-invasive visualization method using a “dorsal skin-fold window chamber model” was used. M. R. Dreher et al., Tumor vascular permeability, accumulation, and penetration of macromolecular drug carriers, 98 J. Nat'l Cancer Inst. 335-344 (2006). To establish the window chamber model, S. Shan et al., A novel rodent mammary window of orthotic breast cancer for intravital microscopy, 65 Microvasc. Res. 109-117 (2003), a flap of skin measuring 1 cm in diameter was dissected away from opposing surfaces of the dorsal skin flap of an anesthetized mouse, leaving a facial plane with its associated vasculature. The flaps were held vertically away from the body with a titanium saddle, which was sutured to both sides of the flap. […] DOX was incorporated into the polymeric micellar core, and DOX fluorescence imaging was captured in the skin dorsal window. […] Observation was made using intravital fluorescence microscopy (Olympus BX51WI Microscope, Leeds Precision Instruments, Inc., Minnesota) over time.

[1] = tested on: human breast MCF-7/DOX^R carcinoma xenografts; assay: Growth inhibition of human breast carcinoma (MCF-7/DOX^R) xenografts; type: in vivo; details: 10 mg/kg DOX equivalent i.v. days 0, 3 and 6
Protocol: Tumor volume was calculated using a formula, tumor volume=0.52×length×width×height. Dimensions were measured with an electronic digital caliper. Two to three weeks after inoculation (tumor volume 150-200 mm^3) in vivo antitumor studies were performed. Saline (control), free DOX, or DOX-loaded micelles in aqueous saline solution were injected intravenously through a tail vein by 1-3 bolus injections at three day intervals. The injection volume (approximately 0.1 mL/10 g body weight) of micelle preparation was adjusted to give 10 mg DOX/kg body weight. Five to eight mice per study were used. Tumor volume and body weight were monitored with elapsed time. A mean standard error was calculated for each experimental point.
For the preparation of doxorubicin-loaded micelles, doxorubicin.HCl (DOX.HCl, Sigma Chemical Co., St. Louis, Mo.) was desalted by stirring overnight in the presence of two molar equivalents of triethylamine (Sigma Chemical Co.) in DMSO (Sigma Chemical Co.). […] The amount of entrapped DOX was determined by measuring UV absorbance at 481 nm of the drug after dissolving micelles in DMSO. […]

For `COc1cccc2c1C(=O)c1c(O)c3c(c(O)c1C2=O)C[C@@](O)(C(=O)CO)C[C@@H]3O[C@H]1C[C@H](N)[C@H](O)[C@H](C)O1` [free DOX, doxorubicin], the “cytotoxicity against MCF-7/DOX^R cells” value (MCF-7/DOX^R cells) was “little reduced”, the “course of DOX fluorescence intensity in the tumor” value (A2780/DOX^R tumor) was “declined after 20 min and became dark at 60 min” and the “time at which DOX fluorescence intensity in tumor started to appear” value (A2780/DOX^R tumor) was no more than 7 min. The body weight change [1] was “more weight loss”.
